These results are taken from ChEMBL document CHEMBL4483862, “Open-source discovery of chemical leads for next-generation chemoprotective antimalarials” (2018).

This assay deals with Plasmodium berghei. The assay is described as follows: Luciferase/luciferin-expressing antifolate-resistant parasites were used to infect a culture of HepG2 cells that were pre-incubated with compounds. Infected hepatocytes emit light due to the luciferase reaction. Assay results are presented as the percent inhibition of light emission compared to control. […]. Type of assay: functional. To be noted: sporozoite; for IC90: read-out: LUCIFERASE INFECTION ASSAY - IC90.

[1] abbreviates: read-out: LUCIFERASE INFECTION ASSAY - IC50.

Where only a bound is given, the exact number is not on record here.

Regarding `O=C(O)C(CCO)Sc1nnc(Nc2ccc(Oc3ccccc3)cc2)s1` (stereo unspecified), the IC90 is greater than 10 µM. The IC50 (HEPG2TOX_HILL_SLOPE 1.82, HEPG2TOX_R_SQUARED 0.816, PBLUC_HILL_SLOPE 10.1, PBLUC_R_SQUARED 0.331, read-out: LUCIFERASE INFECTION ASSAY - IC50) is 9.1 µM.

On to `COc1ccc2c(-c3ccccc3)cc(NCCc3ccc(S(N)(=O)=O)cc3)nc2c1`, for which the IC90 was greater than 10 µM. Besides, the IC50 under setting [1] came to 8.55 µM.

For the compound `Cc1cnc(C)c(Nc2nc(C(N)Cc3ccc(C(F)(F)F)cc3)cs2)n1` (stereo unspecified), the IC90 was greater than 8.39 µM. In addition, the IC50 under setting [1] was greater than 8.39 µM.

For the compound `Cc1ccc(-n2c(-c3ccc(F)cc3)nc3c2C(=O)c2ccccc2C3=O)cc1`, the IC90 is greater than 10 µM. Further, for the setting “PBLUC_HILL_SLOPE 1.1, PBLUC_R_SQUARED 0.595, read-out: LUCIFERASE INFECTION ASSAY - IC50”, the IC50 came to 1.88 µM.

For `CC(=O)c1c(C)[n+]([O-])c2ccccc2[n+]1[O-]` [MEQUINDOX], the IC90 was greater than 15.1 µM. Also, the IC50 (FFLUC_HILL_SLOPE 0.566, FFLUC_R_SQUARED 0.11, read-out: LUCIFERASE INFECTION ASSAY - IC50) was greater than 15.1 µM.

Take `Cc1cc(=O)nc(N/N=C/c2ccccc2O)[nH]1`: the IC90 is greater than 13.5 µM. In addition, the IC50 (HEPG2TOX_HILL_SLOPE 1.27, HEPG2TOX_R_SQUARED 0.681, PBLUC_HILL_SLOPE 2.52, PBLUC_R_SQUARED 0.516, read-out: LUCIFERASE INFECTION ASSAY - IC50) is 6.93 µM.

Turning to `CCc1sc(C(=O)Nc2ccc(F)c(Cl)c2)cc1C`, the IC90 was found to be 8.57 µM. The IC50 (PBLUC_HILL_SLOPE 228, PBLUC_R_SQUARED 0.104, read-out: LUCIFERASE INFECTION ASSAY - IC50) amounted to 8.49 µM.

With `COc1ccc(-c2nn(-c3ccccc3)cc2/C=C/C(=O)Nc2nc3c(C)cccc3s2)cc1OC`, the IC90 was greater than 10 µM. The IC50 under setting [1] stood at 6.8 µM.

Take `O=[N+]([O-])c1ccc(CSc2nc3cc(Cl)c(F)cc3[nH]2)cc1`: the IC90 was greater than 7.88 µM. Under setting [1], the IC50 is greater than 7.88 µM.

On to `Cc1csc(-n2c(C)cc(C(=O)CSc3nc(N)cc(N)n3)c2C)n1`, for which the IC90 was greater than 10 µM. For the setting “FFLUC_HILL_SLOPE 1.79, FFLUC_R_SQUARED 0.665, read-out: LUCIFERASE INFECTION ASSAY - IC50”, the IC50 is greater than 10 µM.

On to `CC1CC(C)CN(C2=CC(=[N+]3CCCC3)CC(C)(C)C2)C1` (stereo unspecified), for which the IC90 was found to be 2.02 µM. In addition, where the note is “HEPG2TOX_HILL_SLOPE 0.983, HEPG2TOX_R_SQUARED 0.985, PBLUC_HILL_SLOPE 2.02, PBLUC_R_SQUARED 0.664, read-out: LUCIFERASE INFECTION ASSAY - IC50”, the IC50 is 0.682 µM.

As to `CC(C)CC(N)c1csc(NC(=O)Nc2ccccc2-c2ccccc2)n1` (stereo unspecified), the IC90 stood at 4.16 µM. Moreover, where the note is “PBLUC_HILL_SLOPE 10.5, PBLUC_R_SQUARED 0.579, read-out: LUCIFERASE INFECTION ASSAY - IC50”, the IC50 turned out to be 3.37 µM.

In the case of `Cc1csc(NC(=O)Nc2ccc(C(F)(F)F)cc2)c1`, the IC90 was greater than 11 µM. The IC50 under setting [1] is greater than 11 µM.

On to `COc1ccc(C(=O)C2CCN(C(=O)C3CC(=O)N(c4ccc(C)c(F)c4)C3)CC2)cc1` (stereo unspecified), for which the IC90 was greater than 10 µM. For the setting “PBLUC_HILL_SLOPE 15.1, PBLUC_R_SQUARED 0.128, read-out: LUCIFERASE INFECTION ASSAY - IC50”, the IC50 turned out to be 9.94 µM.

`CCc1nnc(SCc2cc(=O)n3c(C)csc3n2)[nH]1`: the IC90 was greater than 10 µM. In addition, the IC50 (FFLUC_HILL_SLOPE 120, FFLUC_R_SQUARED 0.18, read-out: LUCIFERASE INFECTION ASSAY - IC50) is greater than 10 µM.

Turning to `O=C(O)CSc1nc2ccccc2c(=O)n1-c1ccccc1Cl`, the IC90 is greater than 10 µM. The IC50 under setting [1] was greater than 10 µM.

Take `Cc1c(C(=O)Nc2nc(CN3CCCC(C)C3)cs2)oc2ccc(Cl)cc12` (stereo unspecified): the IC90 was greater than 10 µM. In addition, the IC50 under setting [1] was greater than 10 µM.

Consider `CCc1cccc(CC)c1N(C(C)=O)c1nc(/C=C/C(=O)c2cc3ccccc3o2)cs1`, for which the IC90 was 6.49 µM. In addition, the IC50 (FFLUC_HILL_SLOPE 3.93, FFLUC_R_SQUARED 0.771, PBLUC_HILL_SLOPE 5.3, PBLUC_R_SQUARED 0.865, read-out: LUCIFERASE INFECTION ASSAY - IC50) came to 4.29 µM.

Take `CC(C)Cn1c(SC2CCOC2=O)nc2cc(Cl)ccc2c1=O` (stereo unspecified): the IC90 is greater than 10 µM. In addition, the IC50 under setting [1] was greater than 10 µM.

Turning to `Cc1ccc(C(=O)Nc2nc3ccccc3[nH]2)cc1F`, the IC90 amounted to 4.06 µM. Also, the IC50 (FFLUC_HILL_SLOPE 1.36, FFLUC_R_SQUARED 0.795, PBLUC_HILL_SLOPE 11.8, PBLUC_R_SQUARED 0.45, read-out: LUCIFERASE INFECTION ASSAY - IC50) is 3.37 µM.

Consider `CC(C)(C)c1ccc(NC(=O)CSc2ccc(S(=O)(=O)N3CCN(Cc4ccccc4)CC3)cn2)cc1`, for which the IC90 came out at 9.27 µM. Besides, the IC50 under setting [1] worked out at 4.44 µM.

Take `CCNC(=O)C1(C)CCCN1Cc1ccc(-c2ccccc2)cc1` (stereo unspecified): the IC90 was greater than 10.2 µM. The IC50 (HEPG2TOX_HILL_SLOPE 7.75, HEPG2TOX_R_SQUARED 0.0398, PBLUC_HILL_SLOPE 14.9, PBLUC_R_SQUARED 0.606, read-out: LUCIFERASE INFECTION ASSAY - IC50) was found to be 9.52 µM.

Turning to `Cc1ccc2nc(NC(=O)c3ccc(F)cc3)c(C(=O)NC3CCCCC3)n2c1`, the IC90 amounted to 4.51 µM. Moreover, the IC50 (HEPG2TOX_HILL_SLOPE 8.64, HEPG2TOX_R_SQUARED 0.539, PBLUC_HILL_SLOPE 8.68, PBLUC_R_SQUARED 0.013, read-out: LUCIFERASE INFECTION ASSAY - IC50) amounted to 3.5 µM.

`O=C(CCCc1ccc(F)cc1)c1ccc2c(c1)OCCO2`: the IC90 was determined as 0.926 µM. Moreover, under “FFLUC_HILL_SLOPE 3.34, FFLUC_R_SQUARED 0.538, PBLUC_HILL_SLOPE 0.746, PBLUC_R_SQUARED 0.706, read-out: LUCIFERASE INFECTION ASSAY - IC50”, the IC50 was found to be 0.0487 µM.

Consider `O=C(NCCSCc1ccc(Cl)cc1Cl)c1ccc(Cl)cc1`, for which the IC90 is greater than 8.81 µM. In addition, the IC50 (PBLUC_HILL_SLOPE 13.4, PBLUC_R_SQUARED 0.244, read-out: LUCIFERASE INFECTION ASSAY - IC50) stood at 7.79 µM.

`COc1ccccc1N(C)S(=O)(=O)c1ccc(C(=O)NNC(=O)c2nn(C)c(=O)c3ccccc23)cc1`: the IC90 was greater than 10 µM. Moreover, the IC50 (HEPG2TOX_HILL_SLOPE 7.89, HEPG2TOX_R_SQUARED 0.384, read-out: LUCIFERASE INFECTION ASSAY - IC50) is greater than 10 µM.

With `COCCN1COc2c(cc(Cl)c3cccnc23)C1`, the IC90 worked out at 5.37 µM. For the same compound, the IC50 (HEPG2TOX_HILL_SLOPE 3.55, HEPG2TOX_R_SQUARED 0.927, PBLUC_HILL_SLOPE 12, PBLUC_R_SQUARED 0.223, read-out: LUCIFERASE INFECTION ASSAY - IC50) came to 4.47 µM.

`Cc1ccc(Cn2c(NCc3cccs3)nc3ccccc32)cc1`: the IC90 is greater than 9.9 µM. Also, under “PBLUC_HILL_SLOPE 9.45, PBLUC_R_SQUARED 0.348, read-out: LUCIFERASE INFECTION ASSAY - IC50”, the IC50 is 8.16 µM.

Regarding `COc1ccccc1-c1cc(-c2cccc(C(F)(F)F)c2)cnc1N`, the IC90 was greater than 9.58 µM. The IC50 (HEPG2TOX_HILL_SLOPE 7.68, HEPG2TOX_R_SQUARED 0.737, read-out: LUCIFERASE INFECTION ASSAY - IC50) is greater than 9.58 µM.

With `c1ccc(-c2ccnc3c2ccc2c(-c4ccccc4)ccnc23)cc1`, the IC90 was determined as 1.74 µM. Moreover, the IC50 (HEPG2TOX_HILL_SLOPE 2.07, HEPG2TOX_R_SQUARED 0.947, PBLUC_HILL_SLOPE 9.72, PBLUC_R_SQUARED 0.861, read-out: LUCIFERASE INFECTION ASSAY - IC50) was determined as 1.39 µM.

In the case of `CSc1sc(-c2n[nH]cc2Br)c2c1C(=O)CC(C)(C)C2`, the IC90 is greater than 8.89 µM. Under “FFLUC_HILL_SLOPE 0.501, FFLUC_R_SQUARED 0.129, read-out: LUCIFERASE INFECTION ASSAY - IC50”, the IC50 is greater than 8.89 µM.

As to `COc1cc(OC)c(C2CCN(C(=O)c3nn(-c4ccc(F)cc4)c4c3CCCC4)CC2)c(OC)c1`, the IC90 was greater than 10 µM. Under “FFLUC_HILL_SLOPE 11.8, FFLUC_R_SQUARED 0.584, PBLUC_HILL_SLOPE 10.3, PBLUC_R_SQUARED 0.0293, read-out: LUCIFERASE INFECTION ASSAY - IC50”, the half-inhibitory concentration (IC50) was greater than 10 µM.

Consider `O=S(=O)(Nc1cccc(-c2ncon2)c1)c1cc(C(F)(F)F)cc(C(F)(F)F)c1`, for which the IC90 was greater than 7.55 µM. The IC50 under setting [1] is 0.531 µM.

Consider `CC(c1nc2ccccc2s1)N(C)c1ncnc2sc3c(c12)CCC3` (stereo unspecified), for which the IC90 is greater than 10 µM. Also, the IC50 (FFLUC_HILL_SLOPE 2.52, FFLUC_R_SQUARED 0.413, HEPG2TOX_HILL_SLOPE 5.64, HEPG2TOX_R_SQUARED 0.118, PBLUC_HILL_SLOPE 2.14, PBLUC_R_SQUARED 0.426, read-out: LUCIFERASE INFECTION ASSAY - IC50) is greater than 10 µM.

In the case of `COc1ccc(-c2ccc(/C=N/Nc3ccc(F)cc3)s2)cc1`, the IC90 amounted to 5.44 µM. Moreover, the IC50 (HEPG2TOX_HILL_SLOPE 1.1, HEPG2TOX_R_SQUARED 0.99, PBLUC_HILL_SLOPE 2.83, PBLUC_R_SQUARED 0.421, read-out: LUCIFERASE INFECTION ASSAY - IC50) worked out at 2.5 µM.

Consider `CC(C)Cn1c(-c2cccs2)nc2c(c(=O)c3ccccc3n2C)c1=O`, for which the IC90 turned out to be 8.59 µM. For the same compound, the IC50 (PBLUC_HILL_SLOPE 2.62, PBLUC_R_SQUARED 0.237, read-out: LUCIFERASE INFECTION ASSAY - IC50) amounted to 3.71 µM.

As for `CCOC(=O)c1oc2ccc(Br)cc2c1CSc1nnc(-c2cccs2)n1Cc1ccccc1`, the IC90 is greater than 10 µM. Further, where the note is “HEPG2TOX_HILL_SLOPE 1.32, HEPG2TOX_R_SQUARED 0.694, read-out: LUCIFERASE INFECTION ASSAY - IC50”, the IC50 was greater than 10 µM.

Regarding `COCC(=O)N1CCCC(C)(C(=O)NCc2cnc(C)cn2)C1` (stereo unspecified), the IC90 is greater than 10.3 µM. In addition, the IC50 under setting [1] is greater than 10.3 µM.
